The values that follow come from article PMC6934184, “Selective DNA-PKcs inhibition extends the therapeutic index of localized radiotherapy and chemotherapy” (The Journal of Clinical Investigation, 2019).

SMILES strings stand for the structures.

This assay concerns the target T1, MYLK (MLCK) (Homo sapiens, UniProt Q15746).
T1 construct: purchased Thermo Fisher Scientific (Life Technologies) SelectScreen
The assay can be described thus: SelectScreen LanthaScreen. The class given is binding. Particulars: read-out: % displacement. In outline:
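SelectScreen broad panel; activity (Z'LYTE, Adapta) plus binding formats. ATP: Km app for CSF1R Z'LYTE; 10 for CAMK1 Adapta. Readout = % per kinase.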

T1 sequence (Q15746 whole entry): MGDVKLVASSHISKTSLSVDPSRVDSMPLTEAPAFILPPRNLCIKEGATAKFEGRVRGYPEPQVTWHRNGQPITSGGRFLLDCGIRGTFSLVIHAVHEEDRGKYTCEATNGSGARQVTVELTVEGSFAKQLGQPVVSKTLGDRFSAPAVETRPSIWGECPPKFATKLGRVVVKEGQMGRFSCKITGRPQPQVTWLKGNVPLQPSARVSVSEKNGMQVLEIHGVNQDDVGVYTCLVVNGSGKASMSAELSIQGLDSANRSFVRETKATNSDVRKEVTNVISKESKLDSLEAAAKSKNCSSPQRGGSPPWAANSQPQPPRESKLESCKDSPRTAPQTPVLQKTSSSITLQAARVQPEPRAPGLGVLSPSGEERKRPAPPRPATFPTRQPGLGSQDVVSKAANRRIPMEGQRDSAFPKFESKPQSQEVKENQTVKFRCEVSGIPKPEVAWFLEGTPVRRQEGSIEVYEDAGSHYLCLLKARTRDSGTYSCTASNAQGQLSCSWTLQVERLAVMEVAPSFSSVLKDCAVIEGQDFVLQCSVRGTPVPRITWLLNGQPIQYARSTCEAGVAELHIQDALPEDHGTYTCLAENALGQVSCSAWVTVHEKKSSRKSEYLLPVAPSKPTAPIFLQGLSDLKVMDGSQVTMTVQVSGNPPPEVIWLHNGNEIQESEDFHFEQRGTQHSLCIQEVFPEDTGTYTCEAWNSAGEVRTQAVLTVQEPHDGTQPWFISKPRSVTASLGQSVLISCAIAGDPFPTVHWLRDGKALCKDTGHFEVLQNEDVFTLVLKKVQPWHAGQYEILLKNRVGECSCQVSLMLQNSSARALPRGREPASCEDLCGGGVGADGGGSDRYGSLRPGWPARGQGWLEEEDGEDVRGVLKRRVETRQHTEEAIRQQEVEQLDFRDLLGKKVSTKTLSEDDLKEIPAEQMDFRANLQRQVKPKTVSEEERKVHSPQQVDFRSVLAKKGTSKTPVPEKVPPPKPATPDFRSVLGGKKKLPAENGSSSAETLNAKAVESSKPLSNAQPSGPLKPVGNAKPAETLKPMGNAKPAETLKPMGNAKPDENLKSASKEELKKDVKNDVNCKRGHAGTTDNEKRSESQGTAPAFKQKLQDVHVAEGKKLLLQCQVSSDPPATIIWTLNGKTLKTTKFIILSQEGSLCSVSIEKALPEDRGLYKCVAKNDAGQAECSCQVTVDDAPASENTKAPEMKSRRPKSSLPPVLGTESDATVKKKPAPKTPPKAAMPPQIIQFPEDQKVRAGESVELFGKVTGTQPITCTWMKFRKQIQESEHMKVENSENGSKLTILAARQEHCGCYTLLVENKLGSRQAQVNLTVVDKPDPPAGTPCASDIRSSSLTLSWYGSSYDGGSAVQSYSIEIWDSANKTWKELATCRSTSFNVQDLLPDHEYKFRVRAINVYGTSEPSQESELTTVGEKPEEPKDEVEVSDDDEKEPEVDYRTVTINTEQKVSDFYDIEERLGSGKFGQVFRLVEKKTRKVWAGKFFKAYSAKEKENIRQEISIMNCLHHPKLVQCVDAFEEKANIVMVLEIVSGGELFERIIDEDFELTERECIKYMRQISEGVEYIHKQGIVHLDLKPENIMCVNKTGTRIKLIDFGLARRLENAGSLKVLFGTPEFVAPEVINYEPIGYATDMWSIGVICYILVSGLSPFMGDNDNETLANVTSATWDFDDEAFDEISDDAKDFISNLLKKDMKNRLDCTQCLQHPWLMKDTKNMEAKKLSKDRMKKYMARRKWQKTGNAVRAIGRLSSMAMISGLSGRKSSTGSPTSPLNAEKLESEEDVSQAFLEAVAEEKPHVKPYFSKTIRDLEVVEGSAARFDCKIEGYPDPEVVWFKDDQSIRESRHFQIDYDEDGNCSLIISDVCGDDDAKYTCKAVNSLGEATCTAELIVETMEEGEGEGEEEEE

For `CN(C(=O)CN1CCOCC1)c1ccc2sc3c(-c4cccc5c(=O)cc(N6CC7CCC(C6)O7)oc45)cccc3c2c1` [NU5455], the inhibition at 1 µM turned out to be 0.2%.
